Data reported in PubChem BioAssay (NCI).
Where “and” joins values, the source holds several entries; their conditions need not be identical. Equal entries are not always repeated.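 Compound exposure: 48 hours, 5 concentrations, 96-well plates. At the GI50, growth is halved. TGI denotes the concentration required for complete inhibition of growth.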

How the values were obtained:
Assay in all cases: inhibition of tumour cell growth, NCI panel, 48 h
[1] = test system: A549 NSCLC
[2] = test system: BT-549 breast
[3] = test system: HCC-2998 colon
[4] = test system: MCF7 breast
[5] = test system: MDA-MB-231 breast
[6] = test system: OVCAR-8 ovarian
[7] = test system: SF-268 CNS
[8] = test system: SF-295 CNS
[9] = test system: SNB-19 CNS
[10] = test system: U251 CNS

| Compound | GI50 [1] | TGI [1] | GI50 [2] | TGI [2] [µM] | GI50 [3] | TGI [3] | GI50 [4] | TGI [4] [µM] | GI50 [5] | TGI [5] | GI50 [6] | TGI [6] [µM] | GI50 [7] | TGI [7] | GI50 [8] | TGI [8] [µM] | GI50 [9] | TGI [9] | GI50 [10] | TGI [10] |
| --- | --- | --- | --- | --- | --- | --- | --- | --- | --- | --- | --- | --- | --- | --- | --- | --- | --- | --- | --- | --- |
| COc1ccc(Cc2nc3cc(OC)c(OC)cc3c(=O)[nH]2)cc1 | 3.61 µM | > 54.3 µM | 4.84 µM | 29.7 | 2.98 µM | 17.1 µM | 5.32 µM | > 47.5 | 9.83 µM | > 100 µM | 13 µM | > 100 | 3.52 µM | > 45.6 µM | 5.21 µM | > 26.9 | 7.23 µM | > 100 µM | 10.5 µM | > 100 µM |
| Nc1nc(=S)c2[nH]cnc2[nH]1 | 2.29 µM and 4.7 µM and 5.85 µM | > 57.7 µM and 105 µM and 85.1 µM | 0.716 µM and 1.4 µM and 1.85 µM |  | 0.382 µM and 1.19 µM | 6.93 µM and 16.7 µM and 4.98 µM | 0.325 µM and 0.547 µM and 1.02 µM |  | 0.323 µM and 1.36 µM | > 100 µM and 150 µM and > 250 µM | 0.374 µM and 0.432 µM and 0.91 µM |  | 0.525 µM and 0.926 µM | > 100 µM and 149 µM and 84 µM | 0.209 µM and 1.24 µM |  | 39.2 µM and 89 µM and 48.6 µM | > 100 µM and 241 µM and > 250 µM | 1.49 µM and 3.11 µM | > 100 µM and 241 µM and > 226 µM |
| NC(N)=N/N=C(/c1ccccc1)c1ccccc1F | 4.51 µM | 36.8 µM | 5.11 µM | 23.6 | 1.39 µM | 4.73 µM | 0.327 µM | 13.3 | 3.34 µM | 11.8 µM | 4.03 µM | 25.8 | 5.48 µM | 26.9 µM | 2.43 µM | 14.3 | 4.19 µM | 31.3 µM | 2.64 µM | 13.3 µM |
| CN(C)c1ccc(N=C2C=CC(=C(C#N)C#N)c3ccccc32)cc1 |  | 13.7 µM |  | 5.12 |  | 0.63 µM |  | 7.51 |  | 2.66 µM |  | 1.75 |  | 8.1 µM |  | 14.9 |  | 12.7 µM |  | 6.53 µM |
| O=C1CCS/C(=N/S(=O)(=O)c2ccc(N3N=C4c5ccccc5CC4C3c3cccs3)cc2)N1Cc1ccccc1 (stereo not given) | 14.4 µM | 35.8 µM | 26.2 µM | 75.2 | 17.9 µM | 33.2 µM | > 100 µM | > 100 | 21.5 µM | 53.7 µM | 19.2 µM | 39.3 | > 100 µM | > 100 µM | 15.8 µM | 37.5 | 22.3 µM | 77.7 µM | 14.4 µM | 32.1 µM |
| CC1(C)CC[C@]2(C(=O)O)CC[C@]3(C)C(=CC[C@@H]4[C@@]5(C)C/C(=C/c6ccco6)C(=O)C(C)(C)[C@@H]5CC[C@]43C)[C@@H]2C1 | 2.6 µM | 23.5 µM | 4.01 µM | 23.4 | 3.15 µM | 12.2 µM | 3.18 µM | 23.5 | 3.49 µM | 19.5 µM | 4.29 µM | > 100 | 4.03 µM | 23 µM | 3.22 µM | 18.1 | 4.02 µM | > 100 µM | 3.45 µM | 15 µM |
| O=c1nc2[nH]c3c(-c4n[nH]c(=O)[nH]c4=O)cccc3c2n[nH]1 | > 100 µM | > 100 µM | > 100 µM | > 100 | > 100 µM | > 100 µM | > 100 µM | > 100 | > 100 µM | > 100 µM | > 100 µM | > 100 | > 100 µM | > 100 µM | > 100 µM | > 100 | > 100 µM | > 100 µM | > 100 µM | > 100 µM |
| COC(=O)[C@H](Cc1cn(C)cn1)NC(=O)[C@@H](NC(=O)Nc1cc(C(F)(F)F)cc(C(F)(F)F)c1)C(C)C | > 10 µM | > 10 µM | 2.51 µM | 7.9 | 1.81 µM | 3.46 µM | 1.98 µM | 4.67 | 1.71 µM | 4.42 µM | 2.16 µM | 5.22 | 2.02 µM | 4.87 µM | > 10 µM | > 10 | 6.71 µM | > 10 µM | > 10 µM | > 10 µM |
| OCCCCC#Cc1ccccc1C#Cc1ccc(C(F)(F)F)cc1 | 14.3 µM | 27.6 µM | 18 µM | 35.1 | 17.1 µM | 32 µM | 33.3 µM | 85.6 | 18.6 µM | 34 µM | 17.4 µM | 33.2 | 22 µM | 48 µM | 19.1 µM | 34.5 | 17.3 µM | 32.3 µM | 14.8 µM | 28.6 µM |
| C=C(Cn1c2ccccc2c(=O)c2ccccc21)c1ccc(C(=O)Nc2ccccc2N)cc1 | 28.5 µM | > 100 µM | 4.07 µM | > 100 | 3.67 µM | > 61.2 µM | > 100 µM | > 100 | 3.72 µM | 56 µM | > 100 µM | > 100 | 5.74 µM | > 100 µM | > 81.5 µM | > 100 |  | > 100 µM | 8.1 µM | > 100 µM |
| O=c1[nH]c2ccc([N+](=O)[O-])c(Cl)c2c2ccccc12 |  | > 100 µM |  | 21.2 |  | 23.6 µM |  | 2.23 |  | 23.6 µM |  | 3.56 |  | 10.6 µM |  | 9.18 |  | 10.5 µM |  | 18 µM |
